Measured values taken from the supplement of paper PMC10307832.

Tests used:
Experiment in all cases: relative viability (nuclei count vs DMSO), 5 days (fraction); higher = more cells survive
NCI-H1563 = system: NCI-H1563
How it was run: (§1)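 The day after seeding in 1536-well plates, lung cancer cell lines were treated by pin tool with a single drug, or with a fixed anchor-drug dose together with five library-drug doses (not always all listed) in √10 steps. After 5 days, a combined fix-and-stain solution (final 0.05% Triton X-100, 1% formaldehyde, 1 ug/ml Hoechst) was added. Nuclei counted on 4× images gave relative viability as treated counts over vehicle counts, reported as the median of duplicate plates.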

SK-LU-1 = system: SK-LU-1
How it was run: as §1

NCI-H2170 = system: NCI-H2170
How it was run: as §1

NCI-H1915 = system: NCI-H1915
How it was run: as §1

NCI-H1793 = system: NCI-H1793
How it was run: as §1

NCI-H441 = system: NCI-H441
How it was run: as §1

NCI-H23 = system: NCI-H23
How it was run: as §1

NCI-H1944 = system: NCI-H1944
How it was run: as §1

NCI-H2342 = system: NCI-H2342
How it was run: as §1

HARA = system: HARA
How it was run: as §1

NCI-H1755 = system: NCI-H1755
How it was run: as §1

NCI-H650 = system: NCI-H650
How it was run: as §1

A-427 = system: A-427
How it was run: as §1

NCI-H322M = system: NCI-H322M
How it was run: as §1

LCLC-97TM1 = system: LCLC-97TM1
How it was run: as §1

PC-3 [JPC-3] = system: PC-3 [JPC-3]
How it was run: as §1

LXF-289 = system: LXF-289
How it was run: as §1

NCI-H460 = system: NCI-H460
How it was run: as §1

NCI-H2023 = system: NCI-H2023
How it was run: as §1

LU99A = system: LU99A
How it was run: as §1

BEN = system: BEN
How it was run: as §1

NCI-H1395 = system: NCI-H1395
How it was run: as §1

NCI-H2126 = system: NCI-H2126
How it was run: as §1

NCI-H1666 = system: NCI-H1666
How it was run: as §1

LOU-NH91 = system: LOU-NH91
How it was run: as §1

Question: Which results are given for `CCCCCCCCCCCC1=C(O)C(=O)C=C(O)C1=O` [Embelin] + COc1cc2c(Oc3ccc(NC(=O)C4(C(=O)Nc5ccc(F)cc5)CC4)cc3F)ccnc2cc1OCCCN1CCOCC1 [Foretinib] (partner 0.25 µM)?
Answer: relative viability (NCI-H1563; first compound 0.08 µM): 0.932; relative viability (NCI-H1563; first compound 0.8 µM): 1.09; relative viability (NCI-H1563; first compound 2.53 µM): 0.944; relative viability (NCI-H1563; first compound 8 µM): 0.896; relative viability (SK-LU-1; first compound 0.08 µM): 0.953; relative viability (SK-LU-1; first compound 0.8 µM): 0.861; relative viability (SK-LU-1; first compound 2.53 µM): 1.04; relative viability (SK-LU-1; first compound 8 µM): 0.888; relative viability (NCI-H2170; first compound 0.08 µM): 0.539; relative viability (NCI-H2170; first compound 0.8 µM): 1.08; relative viability (NCI-H2170; first compound 2.53 µM): 1.06; relative viability (NCI-H2170; first compound 8 µM): 1; relative viability (NCI-H1915; first compound 0.08 µM): 1.14; relative viability (NCI-H1915; first compound 0.8 µM): 1.1; relative viability (NCI-H1915; first compound 2.53 µM): 1.13; relative viability (NCI-H1915; first compound 8 µM): 1.13; relative viability (NCI-H1793; first compound 0.08 µM): 0.712; relative viability (NCI-H1793; first compound 0.8 µM): 0.76; relative viability (NCI-H1793; first compound 2.53 µM): 0.916; relative viability (NCI-H1793; first compound 8 µM): 0.765; relative viability (NCI-H441; first compound 0.08 µM): 1.05; relative viability (NCI-H441; first compound 0.8 µM): 1.09; relative viability (NCI-H441; first compound 2.53 µM): 1.22; relative viability (NCI-H441; first compound 8 µM): 1.09; relative viability (NCI-H23; first compound 0.08 µM): 1.02; relative viability (NCI-H23; first compound 0.8 µM): 1.09; relative viability (NCI-H23; first compound 2.53 µM): 1.07; relative viability (NCI-H23; first compound 8 µM): 1.16; relative viability (NCI-H1944; first compound 0.08 µM): 0.842; relative viability (NCI-H1944; first compound 0.8 µM): 0.968; relative viability (NCI-H1944; first compound 2.53 µM): 0.989; relative viability (NCI-H1944; first compound 8 µM): 0.998; relative viability (NCI-H2342; first compound 0.08 µM): 1.12; relative viability (NCI-H2342; first compound 0.8 µM): 1.12; relative viability (NCI-H2342; first compound 2.53 µM): 1.18; relative viability (NCI-H2342; first compound 8 µM): 1.07; relative viability (HARA; first compound 0.08 µM): 0.827; relative viability (HARA; first compound 0.8 µM): 0.968; relative viability (HARA; first compound 2.53 µM): 1.18; relative viability (HARA; first compound 8 µM): 0.942; relative viability (NCI-H1755; first compound 0.08 µM): 0.912; relative viability (NCI-H1755; first compound 0.8 µM): 0.948; relative viability (NCI-H1755; first compound 2.53 µM): 0.927; relative viability (NCI-H1755; first compound 8 µM): 0.906; relative viability (NCI-H650; first compound 0.08 µM): 0.998; relative viability (NCI-H650; first compound 0.8 µM): 1.21; relative viability (NCI-H650; first compound 2.53 µM): 1.08; relative viability (NCI-H650; first compound 8 µM): 1.02; relative viability (A-427; first compound 0.08 µM): 1.15; relative viability (A-427; first compound 0.8 µM): 1.14; relative viability (A-427; first compound 2.53 µM): 1.12; relative viability (A-427; first compound 8 µM): 1.2; relative viability (NCI-H322M; first compound 0.08 µM): 0.938; relative viability (NCI-H322M; first compound 0.8 µM): 1.22; relative viability (NCI-H322M; first compound 2.53 µM): 1.03; relative viability (NCI-H322M; first compound 8 µM): 0.961; relative viability (LCLC-97TM1; first compound 0.08 µM): 0.988; relative viability (LCLC-97TM1; first compound 0.8 µM): 0.943; relative viability (LCLC-97TM1; first compound 2.53 µM): 1.04; relative viability (LCLC-97TM1; first compound 8 µM): 0.899; relative viability (PC-3 [JPC-3]; first compound 0.08 µM): 1.01; relative viability (PC-3 [JPC-3]; first compound 0.8 µM): 1.02; relative viability (PC-3 [JPC-3]; first compound 2.53 µM): 0.985; relative viability (PC-3 [JPC-3]; first compound 8 µM): 1.08; relative viability (LXF-289; first compound 0.08 µM): 0.999; relative viability (LXF-289; first compound 0.8 µM): 1; relative viability (LXF-289; first compound 2.53 µM): 1.06; relative viability (LXF-289; first compound 8 µM): 0.998; relative viability (NCI-H460; first compound 0.08 µM): 0.996; relative viability (NCI-H460; first compound 0.8 µM): 1.03; relative viability (NCI-H460; first compound 2.53 µM): 1.11; relative viability (NCI-H460; first compound 8 µM): 1.08; relative viability (NCI-H2023; first compound 0.08 µM): 0.819; relative viability (NCI-H2023; first compound 0.8 µM): 0.891; relative viability (NCI-H2023; first compound 2.53 µM): 0.887; relative viability (NCI-H2023; first compound 8 µM): 0.75; relative viability (LU99A; first compound 0.08 µM): 0.907; relative viability (LU99A; first compound 0.8 µM): 0.934; relative viability (LU99A; first compound 2.53 µM): 0.864; relative viability (LU99A; first compound 8 µM): 0.766; relative viability (BEN; first compound 0.08 µM): 0.681; relative viability (BEN; first compound 0.8 µM): 0.954; relative viability (BEN; first compound 2.53 µM): 0.677; relative viability (BEN; first compound 8 µM): 0.867; relative viability (NCI-H1395; first compound 0.08 µM): 0.904; relative viability (NCI-H1395; first compound 0.8 µM): 1.13; relative viability (NCI-H1395; first compound 2.53 µM): 1.08; relative viability (NCI-H1395; first compound 8 µM): 0.953; relative viability (NCI-H2126; first compound 0.08 µM): 1.12; relative viability (NCI-H2126; first compound 0.8 µM): 1.21; relative viability (NCI-H2126; first compound 2.53 µM): 1.23; relative viability (NCI-H2126; first compound 8 µM): 1.2; relative viability (NCI-H1666; first compound 0.08 µM): 0.943; relative viability (NCI-H1666; first compound 0.8 µM): 1.07; relative viability (NCI-H1666; first compound 2.53 µM): 0.978; relative viability (NCI-H1666; first compound 8 µM): 0.941; relative viability (LOU-NH91; first compound 0.08 µM): 0.968; relative viability (LOU-NH91; first compound 0.8 µM): 1.08; relative viability (LOU-NH91; first compound 2.53 µM): 1.09; relative viability (LOU-NH91; first compound 8 µM): 0.978
